Molecules are shown by their SMILES. Like-named read-outs stand apart in the source and are kept apart here.

In the assay the target is T1, P2X7 receptor (Rattus norvegicus, UniProt Q64663).
T1 construct: yielding a construct that encoded the entire P2X7 protein; expressed in transfected cells
T1 sequence (Q64663 1-595): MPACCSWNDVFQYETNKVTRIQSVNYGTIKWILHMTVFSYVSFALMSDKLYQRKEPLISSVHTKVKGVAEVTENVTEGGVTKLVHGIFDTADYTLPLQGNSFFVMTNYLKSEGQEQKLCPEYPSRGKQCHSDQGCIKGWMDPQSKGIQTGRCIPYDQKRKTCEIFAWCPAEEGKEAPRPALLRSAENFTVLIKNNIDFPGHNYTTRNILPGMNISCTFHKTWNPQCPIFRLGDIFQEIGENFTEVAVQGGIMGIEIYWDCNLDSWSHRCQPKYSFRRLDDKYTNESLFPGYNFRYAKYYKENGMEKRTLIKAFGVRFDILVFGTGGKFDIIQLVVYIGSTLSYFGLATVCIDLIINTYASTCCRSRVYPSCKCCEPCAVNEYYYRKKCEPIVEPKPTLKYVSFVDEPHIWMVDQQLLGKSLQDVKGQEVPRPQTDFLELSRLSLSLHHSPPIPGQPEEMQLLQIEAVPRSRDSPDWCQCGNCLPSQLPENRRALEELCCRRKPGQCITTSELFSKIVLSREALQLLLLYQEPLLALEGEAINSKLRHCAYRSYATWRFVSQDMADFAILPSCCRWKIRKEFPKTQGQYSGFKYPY
The assay can be described thus: Whole-cell recordings of agonist-evoked currents in HEK293 cells transfected with rat P2X7 cDNA (Example 2). The conditions noted are these: for EC50: read-out: EC50 (half-maximal concentration) for current. Format: cell-based. Here is the method: Whole-cell recordings were obtained at room temperature from HEK293 cells transiently or stably transfected with P2X7 cDNA, from HEK293 cells transiently transfected with P2X7ΔC cDNA, and from J774A.1 cells (American Type Culture Collection, Rockville, Md.). Agonist were applied for periods of 1 to 3 s by a fast-flow U-tube delivery system (Fenwick et al, J. Physiol. (London) 331:577 (1982)). The internal pipette solution was 140 mM cesium-aspartate or potassium-aspartate, 20 mM NaCl, 10 mM EGTA, and 5 mM Hepes: normal external solution was 145 mM NaCl, 2 mM KCl, 2 mM CaCl2, 1 mM MgCl2, 10 mM Hepes, and 12 mM glucose. Low divalent external solution was nominally magnesium-free with 0.3 mM CaCl2. For cells expressing P2X7 receptors and J774 cells, concentration-response curves were constructed in low divalent solution by recording currents in response to 1-s applications of agonist at 8-min intervals with normal external solution present for 6 min before each application. This protocol was necessary to prevent the development of sustained inward currents. Lipofectin was used for transfection (Buell et al, EMBO J. 15:55 (1996)).
Reversal potentals (Erev) were obtained by application of ATP (300 μM) or BzATP (30 μM) while the membrane was held at various potentals or by application of voltage ramps from −120 to 30 or 50 mV. Permeability ratios from (Erev) were calculated by first computing α (=Pna/PK, where P is permeability) for internal (i) and external (o) concentrations [Na]i=20 mM, [Na]o=145 mM, [Ko]=0 mM, and [K]i=140 mM from α={[145/exp(Erev)F/RT −20]}/140 (where F is the Faraday, R is the gas constant, and T is the absolute temperature). Other PK/PNa values, when [X]o=145 mM, [Na]i=20 mM, [K]i=140 mM, and [Na]o=[K]o=[X]i=0 mM, were computed from PK/PNa={[exp (ErevF/RT) (20=140α)}/145. In order of size (FIG. 3C), X was cesium, methylamine, tris(hydroxymethyl)-aminomethane, tetraethylammonium, and N-methyl-D-glucamine. The internal solution also contained 10 mM EGTA and 5 mM Hepes. External solutions also contained 10 mM glucose and normal or low concentrations of divalent cations; pH was maintained at 7.3 with HCl, histidine, or Hepes as required, and the osmolarity of all solutions was 295 to 315.

With `Nc1ncnc2c1ncn2[C@@H]1O[C@H](COP(=O)(O)OP(=O)(O)OP(=O)(O)O)[C@@H](OC(=O)c2ccc(C(=O)c3ccccc3)cc2)[C@H]1O` [BzATP, 3′-O-(4-benzoyl)benzoyl ATP], the “Current amplitude (mean±SEM) to BzATP” value (30 μM BzATP, normal solution, holding potential −70 mV, transiently transfected HEK cells, n=18) amounted to 636±118 pA. Also, the EC50 was determined as 7 ± 2 µM (normal solution (2 mM CaCl2, 1 mM MgCl2), n=4) and 3.7 ± 0.7 µM (zero magnesium, n=7).
